Results from US8815882B2, “Pyrazole aminopyrimidine derivatives as LRRK2 modulators” (Genentech, Inc., priority 2010, dated 2014).

target: T1, LRRK2 (Homo sapiens, UniProt Q5S007, G2019S); assay: In Vitro LRRK2 Assay (LabChip 3000, fluorescently-labeled peptide substrate, ATP); type: biochemical; details: Table 9; LRRK2 Ki (micromolar); read-out: LRRK2 Ki (KI)
T1 construct: purchased Invitrogen PV4882 (lot 567054A)
Protocol: This assay was used to determine a compound's potency in inhibiting activity of LRRK2 by determining, Kiapp, IC50, or percent inhibition values. In a polypropylene plate, LRRK2, fluorescently-labeled peptide substrate, ATP and test compound were incubated together. Using a LabChip 3000 (Caliper Life Sciences), after the reaction the substrate was separated by capillary electrophoresis into two populations: phosphorylated and unphosphorylated. The relative amounts of each were quantitated by fluorescence intensity. LRRK2 Ki was determined according to the equation: Y=V0*(1−(x+Ki*(1+S/Km)+Et)/(2*Et)−(((x+Ki*(1+S/Km)+Et)^2−(4*Et*x))^0.5)/(2*Et))). Ki values in Table 4 and elsewhere herein are shown in μM.
Assay conditions and materials used were as follows:
Compound Plate Preparation:
For serial dilutions, 34.6 μl DMSO was added to columns 3-24.
Total and Blank Preparation:
In Complete Reaction Buffer, substrate was diluted to 4 μM. Equal volumes of Complete Reaction Buffer and 4 μM substrate were combined to obtain the blank. Equal volumes of Complete Reaction Buffer and 4 μM substrate were combined and to the combined solution was added 2× final LRRK2 concentration.
To a 50 μl polypropylene plate, 5 μl/well buffer/substrate was added by hand to Blank wells. A Biomek FX was used to start the kinase reaction (“PLK SAR 23 ATP”). The following were added to the appropriate wells:
5 μl/well compound/ATP in Assay Plate;
5 μl/well kinase/substrate in Assay Plate;
The plate was incubated for 2 hours in the dark. Biomek FX was used to stop the kinase reaction (“PLK Stop”), and 10 μl/well Stop solution was added to the Assay Plate. Results were read on the LabChip 3000.
The LabChip 3000 was run using the job “LRRK2 IC50” with the following job settings: […]

T1 sequence (Q5S007 whole entry G2019S): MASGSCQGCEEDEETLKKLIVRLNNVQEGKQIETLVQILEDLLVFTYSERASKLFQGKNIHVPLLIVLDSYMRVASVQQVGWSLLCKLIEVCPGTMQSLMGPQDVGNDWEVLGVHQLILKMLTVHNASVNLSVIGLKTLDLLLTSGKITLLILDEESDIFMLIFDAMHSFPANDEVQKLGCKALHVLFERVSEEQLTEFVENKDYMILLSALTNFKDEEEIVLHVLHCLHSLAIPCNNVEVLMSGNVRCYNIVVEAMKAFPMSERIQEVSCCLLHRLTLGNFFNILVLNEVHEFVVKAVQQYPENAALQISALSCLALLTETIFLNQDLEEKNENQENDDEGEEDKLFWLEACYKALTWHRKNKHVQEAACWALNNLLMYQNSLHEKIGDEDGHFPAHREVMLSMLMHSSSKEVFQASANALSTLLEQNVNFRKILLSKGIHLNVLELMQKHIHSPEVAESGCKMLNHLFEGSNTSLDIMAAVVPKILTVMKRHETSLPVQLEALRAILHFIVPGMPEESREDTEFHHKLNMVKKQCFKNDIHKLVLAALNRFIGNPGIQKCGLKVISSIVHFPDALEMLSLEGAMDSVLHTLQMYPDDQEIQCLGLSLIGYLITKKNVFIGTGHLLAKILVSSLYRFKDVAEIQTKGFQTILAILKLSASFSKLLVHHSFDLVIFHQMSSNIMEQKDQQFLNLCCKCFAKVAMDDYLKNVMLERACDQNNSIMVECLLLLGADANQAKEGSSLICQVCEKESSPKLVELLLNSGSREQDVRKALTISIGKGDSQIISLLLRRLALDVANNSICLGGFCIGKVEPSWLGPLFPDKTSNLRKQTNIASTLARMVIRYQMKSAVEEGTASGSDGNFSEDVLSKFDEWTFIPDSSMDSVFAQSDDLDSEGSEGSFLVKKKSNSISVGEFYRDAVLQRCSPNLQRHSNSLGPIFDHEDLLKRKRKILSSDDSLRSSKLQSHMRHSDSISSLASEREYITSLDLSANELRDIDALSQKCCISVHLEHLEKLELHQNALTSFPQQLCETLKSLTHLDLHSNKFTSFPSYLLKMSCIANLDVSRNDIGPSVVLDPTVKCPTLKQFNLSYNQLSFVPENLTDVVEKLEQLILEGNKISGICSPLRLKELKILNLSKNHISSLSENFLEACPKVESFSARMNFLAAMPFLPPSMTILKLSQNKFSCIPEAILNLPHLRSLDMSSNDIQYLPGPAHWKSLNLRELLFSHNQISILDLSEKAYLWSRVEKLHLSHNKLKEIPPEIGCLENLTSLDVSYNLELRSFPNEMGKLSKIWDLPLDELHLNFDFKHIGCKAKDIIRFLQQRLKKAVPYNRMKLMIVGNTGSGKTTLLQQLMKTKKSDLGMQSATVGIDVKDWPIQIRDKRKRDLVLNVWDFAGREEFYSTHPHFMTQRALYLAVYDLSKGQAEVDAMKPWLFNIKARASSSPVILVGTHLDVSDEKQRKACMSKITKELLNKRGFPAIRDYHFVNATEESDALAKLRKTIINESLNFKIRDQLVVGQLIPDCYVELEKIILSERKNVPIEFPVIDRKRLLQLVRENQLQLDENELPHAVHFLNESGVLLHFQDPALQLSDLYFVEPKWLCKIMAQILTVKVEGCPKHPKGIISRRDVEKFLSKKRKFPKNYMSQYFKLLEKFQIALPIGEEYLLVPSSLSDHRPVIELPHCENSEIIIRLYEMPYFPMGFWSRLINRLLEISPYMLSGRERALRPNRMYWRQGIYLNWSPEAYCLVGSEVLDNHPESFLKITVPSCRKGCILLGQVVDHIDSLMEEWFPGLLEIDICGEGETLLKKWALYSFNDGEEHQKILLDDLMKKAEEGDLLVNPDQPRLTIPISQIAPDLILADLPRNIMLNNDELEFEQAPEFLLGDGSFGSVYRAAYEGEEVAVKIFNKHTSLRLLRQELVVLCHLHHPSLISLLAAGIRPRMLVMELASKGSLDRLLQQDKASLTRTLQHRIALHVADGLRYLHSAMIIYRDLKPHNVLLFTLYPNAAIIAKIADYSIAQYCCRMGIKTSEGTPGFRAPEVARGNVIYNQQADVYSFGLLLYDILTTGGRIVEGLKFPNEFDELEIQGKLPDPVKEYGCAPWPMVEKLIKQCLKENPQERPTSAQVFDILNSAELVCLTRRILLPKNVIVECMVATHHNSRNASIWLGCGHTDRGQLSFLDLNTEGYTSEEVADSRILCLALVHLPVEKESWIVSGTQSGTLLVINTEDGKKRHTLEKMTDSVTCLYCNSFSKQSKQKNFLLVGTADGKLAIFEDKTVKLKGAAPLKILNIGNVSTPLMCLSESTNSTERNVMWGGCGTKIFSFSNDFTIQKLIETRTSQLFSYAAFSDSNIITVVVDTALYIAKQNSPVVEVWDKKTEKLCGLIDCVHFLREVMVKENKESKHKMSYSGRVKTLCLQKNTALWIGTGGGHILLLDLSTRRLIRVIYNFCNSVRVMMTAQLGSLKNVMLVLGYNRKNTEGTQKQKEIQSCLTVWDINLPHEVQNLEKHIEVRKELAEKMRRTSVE

Ki | SMILES
53 nM | CNc1nc(Nc2cn(CC(F)(F)F)nc2C)ncc1C#N [Example 359, 2-(3-methyl-1-(2,2,2-trifluoroethyl)-1H-pyrazol-4-ylamino)-4-(methylamino) pyrimidine-5-carbonitrile]
95.9 nM | CNc1nc(Nc2cnn(-c3ccc(F)cc3)c2C)ncc1C#N [Example 386, 2-[1-(4-Fluoro-phenyl)-5-methyl-1H-pyrazol-4-ylamino]-4-methylamino-pyrimidine-5-carbonitrile]
22.5 nM | CNc1nc(Nc2cnn(C3CCN(CC(F)(F)F)CC3)c2C)ncc1C#N [Example 356, 2-(5-methyl-1-(1-(2,2,2-trifluoroethyl)piperidin-4-yl)-1H-pyrazol-4-ylamino)-4-(methylamino) pyrimidine-5-carbonitrile]

same assay, conditions: Table 10; LRRK2 Ki (micromolar); read-out: LRRK2 Ki (KI)

Ki | SMILES
404 nM | CNc1nc(Nc2cnn(C(C)(C)C(=O)N3CCCC3)c2C)ncc1C(F)(F)F [Example 400, 2-methyl-2-(5-methyl-4-(4-(methylamino)-5-(trifluoromethyl)pyrimidin-2-ylamino)-1H-pyrazol-1-yl)-1-(pyrrolidin-1-yl)propan-1-one]
73 nM | CNc1nc(Nc2cn(C(C)(C)C(=O)NC(C)(C)C)nc2C)ncc1C(F)(F)F [Example 423, N-tert-butyl-2-methyl-2-(3-methyl-4-(4-(methylamino)-5-(trifluoromethyl)pyrimidin-2-ylamino)-1H-pyrazol-1-yl)propanamide]
66.6 nM | CNc1nc(Nc2cnn(C(C)(C)C(=O)NCC(F)(F)F)c2C)ncc1C(F)(F)F [Example 443, 2-[5-Methyl-4-(4-methylamino-5-trifluoromethyl-pyrimidin-2-ylamino)-pyrazol-1-yl]-N-(2,2,2-trifluoro-ethyl)-isobutyramide]
15.3 nM | CCNc1nc(Nc2cnn(C(C)(C)C(=O)NC)c2C)ncc1C(F)(F)F [Example 448, 2-[4-(4-Ethylamino-5-trifluoromethyl-pyrimidin-2-ylamino)-5-methyl-pyrazol-1-yl]-N-methyl-isobutyramide]
40 nM | CNc1nc(Nc2cnn([C@@H](C)C(=O)N3CCCC3)c2C)ncc1C(F)(F)F [Example 413, (S)-2-(5-methyl-4-(4-(methylamino)-5-(trifluoromethyl)pyrimidin-2-ylamino)-1H-pyrazol-1-yl)-1-(pyrrolidin-1-yl)propan-1-one]
7.6 nM | CNc1nc(Nc2cnn(C(C)(C)C(=O)OC)c2C)ncc1C(F)(F)F [Example 409, methyl 2-methyl-2-(5-methyl-4-(4-(methylamino)-5-(trifluoromethyl)pyrimidin-2-ylamino)-1H-pyrazol-1-yl)propanoate]
1.3 nM | CNC(=O)C(C)(C)n1cc(Nc2ncc(C(F)(F)F)c(NC3CC3)n2)c(C)n1 [Example 449, 2-[4-(4-Cyclopropylamino-5-trifluoromethyl-pyrimidin-2-ylamino)-3-methyl-pyrazol-1-yl]-N-methyl-isobutyramide]
35.5 nM | COC(=O)C(C)(C)n1cc(Nc2ncc(Cl)c(OC)n2)c(C)n1 [Example 435, 2-[4-(5-Chloro-4-methoxy-pyrimidin-2-ylamino)-3-methyl-pyrazol-1-yl]-2-methyl-propionic acid methyl ester]
35.5 nM | CCNC(=O)C(C)(C)n1ncc(Nc2ncc(C(F)(F)F)c(NC)n2)c1Cl [Example 425, 2-(5-chloro-4-(4-(methylamino)-5-(trifluoromethyl)pyrimidin-2-ylamino)-1H-pyrazol-1-yl)-N-ethyl-2-methyl propanamide]
0.7 nM | CNc1nc(Nc2cnn(C(C)(C)C#N)c2C)ncc1C(F)(F)F [Example 401, 2-methyl-2-(5-methyl-4-(4-(methylamino)-5-(trifluoromethyl)pyrimidin-2-ylamino)-1H-pyrazol-1-yl)propanenitrile]

same assay, conditions: read-out: LRRK2 Ki (KI), Table 7

Ki | SMILES
59 nM | COc1nc(Nc2cc(C3CC3)nn2C)ncc1Cl [Example 39, 5-Chloro-N-(3-cyclopropyl-1-methyl-1H-pyrazol-5-yl)-4-methoxy-pyrimidin-2-amine]
2.4 nM | COc1nc(Nc2cn(-c3ccc(C#N)cc3)nc2C)ncc1Cl [Example 68, 4-(4-(5-chloro-4-methoxy-pyrimidin-2-ylamino)-3-methyl-1H-pyrazol-1-yl)benzonitrile]
9.4 nM | CCNc1nc(Nc2cn(C3CCN(CC4OCCO4)CC3)nc2C)ncc1C(F)(F)F [Example 88, N^2-[1-(1-[1,3]Dioxolan-2-ylmethyl-piperidin-4-yl)-3-methyl-1H-pyrazol-4-yl]-N^4-ethyl-5-trifluoromethyl-pyrimidine-2,4-diamine]
24 nM | Cc1c(Nc2ncc(Cl)c(OCC(F)F)n2)cnn1C [Example 63, 5-chloro-4-(2,2-difluoroethoxy)-N-(1,5-dimethyl-1H-pyrazol-4-yl)pyrimidin-2-amine]

same assay, conditions: read-out: LRRK2 Ki (KI), Table 8

SMILES | Ki
CNc1nc(Nc2cnn(C3CCN(CCF)CC3)c2C)ncc1C(F)(F)F [Example 284, N2-{1-[1-(2-Fluoro-ethyl)-piperidin-4-yl]-5-methyl-1H-pyrazol-4-yl}-N4-methyl-5-trifluoromethyl-pyrimidine-2,4-diamine] | 4.2 nM
CCNc1nc(Nc2cnn(C)c2C)ncc1Br [Example 257, 5-Bromo-N2-(1,5-dimethyl-1H-pyrazol-4-yl)-N4-ethyl-pyrimidine-2,4-diamine] | 1.5 nM
CNc1nc(Nc2cn(S(=O)(=O)C3CC3)nc2C)ncc1C(F)(F)F [Example 170, N2-(1-(cyclopropyl-sulfonyl)-3-methyl-1H-pyrazol-4-yl)-N4-methyl-5-(trifluoromethyl) pyrimidine-2,4-diamine] | 2 nM
CCCn1cc(Nc2ncc(C(F)(F)F)c(NC)n2)c(C)n1 [Example 120, N4-methyl-N2-(3-methyl-1-propyl-1H-pyrazol-4-yl)-5-(trifluoromethyl) pyrimidine-2,4-diamine] | 0.6 nM
CNc1nc(Nc2cn(CC(C)(C)O)nc2C)ncc1C(F)(F)F [Example 250, 2-Methyl-1-[3-methyl-4-(4-methylamino-5-trifluoromethyl-pyrimidin-2-ylamino)-pyrazol-1-yl]-propan-2-ol] | 12.2 nM
CNc1nc(Nc2cnn(CC(C)(C)O)c2C(F)(F)F)ncc1C(F)(F)F [Example 197, 2-methyl-1-(4-(4-(methylamino)-5-(trifluoromethyl)pyrimidin-2-ylamino)-5-(trifluoromethyl)-1H-pyrazol-1-yl)propan-2-ol] | 26 nM
CCCCn1ncc(Nc2ncc(C(F)(F)F)c(NC)n2)c1C [Example 127, N2-(1-butyl-5-methyl-1H-pyrazol-4-yl)-N4-methyl-5-(trifluoromethyl) pyrimidine-2,4-diamine] | 0.3 nM
CNc1nc(Nc2cn(C(C)(C)COC)nc2C)ncc1C(F)(F)F [Example 190, N2-(1-(1-methoxy-2-methylpropan-2-yl)-3-methyl-1H-pyrazol-4-yl)-N4-methyl-5-(trifluoromethyl) pyrimidine-2,4-diamine] | 6.9 nM
CNc1nc(Nc2cnn([C@H](C)COC)c2C)ncc1C(F)(F)F [Example 205, (R)-N2-(1-(1-methoxypropan-2-yl)-5-methyl-1H-pyrazol-4-yl)-N4-methyl-5-(trifluoromethyl) pyrimidine-2,4-diamine] | 19 nM
CNc1nc(Nc2cn(-c3ccnc(C)c3)nc2C)ncc1C(F)(F)F [Example 143, N4-methyl-N2-(3-methyl-1-(2-methylpyridin-4-yl)-1H-pyrazol-4-yl)-5-(trifluoromethyl) pyrimidine-2,4-diamine] | 6.9 nM

The next lines start with the values.

Ki | SMILES
2.2 nM | CNc1nc(Nc2cnn(C3CCN(C4COC4)CC3F)c2Cl)ncc1C(F)(F)F (centres unmarked) [Example 305, N2-[5-Chloro-1-(3-fluoro-1-oxetan-3-yl-piperidin-4-yl)-1H-pyrazol-4-yl]-N4-methyl-5-trifluoromethyl-pyrimidine-2,4-diamine]
7.2 nM | CCS(=O)(=O)n1ncc(Nc2ncc(C(F)(F)F)c(NC)n2)c1C [Example 287, N2-(1-Ethanesulfonyl-5-methyl-1H-pyrazol-4-yl)-N4-methyl-5-trifluoromethyl-pyrimidine-2,4-diamine]
50.6 nM | CCNc1nc(Nc2cn(C(C)(C)CN3CCOCC3)nc2C)ncc1C(F)(F)F [Example 298, N2-[1-(1,1-Dimethyl-2-morpholin-4-yl-ethyl)-3-methyl-1H-pyrazol-4-yl]-N4-ethyl-5-trifluoromethyl-pyrimidine-2,4-diamine]
2.6 nM | CNc1nc(Nc2cnn(Cc3cnccn3)c2C)ncc1C(F)(F)F [Example 316, N4-Methyl-N2-(5-methyl-1-pyrazin-2-ylmethyl-1H-pyrazol-4-yl)-5-trifluoromethyl-pyrimidine-2,4-diamine]
8.5 nM | CCNc1nc(Nc2cn([C@H]3CCCN(C4COC4)C3)nc2C)ncc1C(F)(F)F [Example 308, N4-Ethyl-N2-[3-methyl-1-((S)-1-oxetan-3-yl-piperidin-3-yl)-1H-pyrazol-4-yl]-5-trifluoromethyl-pyrimidine-2,4-diamine]
